Data taken from the NIST ThermoML archive (doi:10.1021/acs.jced.7b00060).

What was measured:
[1] = refractive index (Na D-line) (dimensionless); details: 101.33 kPa, Liquid, Standard Abbe refractometry
[2] = 101.33 kPa, Liquid; for electrical conductivity: Alternating current cell with electrodes; for viscosity: Falling or rolling sphere viscometry; for mass density: Vibrating tube method

CC[S+](CC)CC.O=S(=O)([N-]S(=O)(=O)C(F)(F)F)C(F)(F)F [triethylsulfonium bis((trifluoromethyl)sulfonyl)imide]
Details	electrical conductivity [S/m]	mass density [kg/m3]	refractive index	viscosity [mPa·s]
[1], 283.15 K	–	–	1.4308	–
[1], 288.15 K	–	–	1.4293	–
[1], 293.15 K	–	–	1.4279	–
[1], 298.15 K	–	–	1.4264	–
[1], 303.15 K	–	–	1.4249	–
[1], 308.15 K	–	–	1.4234	–
[1], 313.15 K	–	–	1.4219	–
[1], 318.15 K	–	–	1.4204	–
[1], 323.15 K	–	–	1.419	–
[1], 328.15 K	–	–	1.4175	–
[1], 333.15 K	–	–	1.4161	–
[1], 338.15 K	–	–	1.4148	–
[1], 343.15 K	–	–	1.4134	–
[2], 258.15 K	0.0992	–	–	–
[2], 268.15 K	0.186	–	–	–
[2], 278.15 K	0.314	1479.69	–	80.5
[2], 288.15 K	0.487	1469.86	–	49.88
[2], 298.15 K	0.708	1460.14	–	33.36
[2], 308.15 K	0.975	1450.51	–	23.5
[2], 318.15 K	1.29	1440.97	–	17.34
[2], 328.15 K	1.64	1431.52	–	13.26
[2], 338.15 K	2.03	1422.15	–	10.44
[2], 348.15 K	2.46	–	–	8.445
[2], 358.15 K	2.91	–	–	6.963
[2], 368.15 K	3.4	–	–	5.849
[2], 378.15 K	3.92	–	–	4.99
[2], 388.15 K	4.43	–	–	4.312
[2], 398.15 K	5	–	–	3.768
[2], 408.15 K	5.58	–	–	–
[2], 418.15 K	6.16	–	–	–
[2], 428.15 K	6.76	–	–	–
[2], 438.15 K	7.37	–	–	–
[2], 448.15 K	7.98	–	–	–
[2], 458.15 K	8.59	–	–	–
[2], 468.15 K	9.17	–	–	–

CC[S+](C)CC.O=S(=O)([N-]S(=O)(=O)C(F)(F)F)C(F)(F)F [diethylmethylsulfonium bis[(trifluoromethyl)sulfonyl]imide]
Details	electrical conductivity, [2] [S/m]	mass density, [2] [kg/m3]	refractive index, [1]	viscosity, [2] [mPa·s]
258.15 K	0.0975	–	–	–
268.15 K	0.182	–	–	–
278.15 K	0.305	1520.53	–	98.6
283.15 K	–	–	1.4276	–
288.15 K	0.473	1510.56	1.4262	61.05
293.15 K	–	–	1.4247	–
298.15 K	0.688	1500.71	1.4233	40.71
303.15 K	–	–	1.4219	–
308.15 K	0.95	1490.96	1.4204	28.55
313.15 K	–	–	1.419	–
318.15 K	1.26	1481.3	1.4175	20.95
323.15 K	–	–	1.4161	–
328.15 K	1.61	1471.73	1.4146	15.73
333.15 K	–	–	1.4132	–
338.15 K	2	1462.25	1.4118	12.34
343.15 K	–	–	1.4103	–
348.15 K	2.43	–	–	9.945
358.15 K	2.88	–	–	8.183
368.15 K	3.37	–	–	6.826
378.15 K	3.89	–	–	5.793
388.15 K	4.43	–	–	4.981
398.15 K	4.99	–	–	4.331
418.15 K	6.16	–	–	–
438.15 K	7.38	–	–	–
458.15 K	8.63	–	–	–
